# Assay results as given in patent publication US20230136600A1, “Method and device for screening antigen epitope polypeptide” (priority 2020, published 2023).
# System: Balb/c mice
# Assay: Polypeptide chip-based vaccine immunogenicity scoring system
# Assay type: in vivo
# Design: key to A2: whether the 95 percentile of the last sampling is increased compared with the end point: Y = rise; N = no rise
# Details: for A: 95 percentile grouping number score / B: Mouse performance score: total score = 5; for C1: #A timing-sequence response peptide fragment set / C2: #B vaccine specificity peptide fragment set / C3: Intersection of A and B / C4: Percentage of the intersection in set B / C: Timing-sequence response and specificity score: value of the whole mix
# Protocol: Data distribution and characteristics thereof are analyzed based on a) and b), a polypeptide chip-based vaccine immunogenicity scoring system (referring to Table 7) is designed.
# 10 combinations are evaluated by the polypeptide chip-based vaccine immunogenicity scoring system. An evaluation method is consistent with that in Embodiment II. Evaluation results are show in the table below.
# This embodiment is consistent with Embodiment II. Each combination is evaluated by the polypeptide chip-based vaccine immunogenicity scoring system. Evaluation results are show in the table below.
# [1] = Embodiment III, polypeptide-KLH
# [2] = Embodiment III, polypeptide-KLH, Mix1-10
# [3] = Embodiment III, polypeptide-KLH, A*3 + B*2 + C*1
# [4] = adjuvant AddaVax, 7 peptides co-immunized in mice
# [5] = adjuvant Adju-Phos, 7 peptides co-immunized in mice
# [6] = adjuvant Alhydrogel, 7 peptides co-immunized in mice
# [7] = adjuvant Imjet Alumn, 7 peptides co-immunized in mice
# [8] = adjuvant MA103A, 7 peptides co-immunized in mice
# [9] = adjuvant MA103B, 7 peptides co-immunized in mice
sequence,measurement,setting,value
LQDLKWARFPKS [SEQ ID NO:29],B1: D 0-D 14 95 percentile rise in the number of mice,[1],3
same,B2: D 0-D 21 95 percentile rise in the number of mice,[1],3
same,B3: D 14-D 21 95 percentile rise in the number of mice,[1],2
same,B4: D 21-D 28 95 percentile rise in the number of mice,[1],0
same,A1: difference between a highest median and a D 0 median (95 percentile),[2],0.10
same,A2: whether the 95 percentile of the last sampling is increased compared with the end point,[2],N
same,Total single peptide,[3],16.3
same,A: 95 percentile grouping number score,[1],4
same,B: Mouse performance score,[1],1.9
same,C1: #A timing-sequence response peptide fragment set,[1],257
same,C2: #B vaccine specificity peptide fragment set,[1],682
same,C3: Intersection of A and B,[1],3
same,C4: Percentage of the intersection in set B,[1],0.440
same,C: Timing-sequence response and specificity score,[1],0.5
same,1) 95 percentile grouping number A,[4],4
same,1) 95 percentile grouping number A1,[4],0.055
same,2) Mouse performance B,[4],3.5
same,2) Mouse performance B1,[4],3
same,2) Mouse performance B2,[4],5
same,2) Mouse performance B3,[4],4
same,3) Timing-sequence response and specificity C,[4],0
same,3) Timing-sequence response and specificity C1,[4],237
same,3) Timing-sequence response and specificity C2,[4],1244
same,3) Timing-sequence response and specificity C3,[4],0
same,3) Timing-sequence response and specificity C4,[4],0.000
same,Total single peptide,[4],19
same,1) 95 percentile grouping number A,[5],3.5
same,1) 95 percentile grouping number A1,[5],0.055
same,2) Mouse performance B,[5],1.9
same,2) Mouse performance B1,[5],3
same,2) Mouse performance B2,[5],3
same,2) Mouse performance B3,[5],1
same,3) Timing-sequence response and specificity C,[5],0
same,3) Timing-sequence response and specificity C1,[5],203
same,3) Timing-sequence response and specificity C2,[5],1244
same,3) Timing-sequence response and specificity C3,[5],0
same,3) Timing-sequence response and specificity C4,[5],0.000
same,Total single peptide,[5],14.3
same,1) 95 percentile grouping number A,[6],3
same,1) 95 percentile grouping number A1,[6],0.04
same,2) Mouse performance B,[6],1.9
same,2) Mouse performance B1,[6],5
same,2) Mouse performance B2,[6],2
same,2) Mouse performance B3,[6],0
same,3) Timing-sequence response and specificity C,[6],1
same,3) Timing-sequence response and specificity C1,[6],123
same,3) Timing-sequence response and specificity C2,[6],1244
same,3) Timing-sequence response and specificity C3,[6],2
same,3) Timing-sequence response and specificity C4,[6],0.161
same,Total single peptide,[6],13.3
same,1) 95 percentile grouping number A,[7],5
same,1) 95 percentile grouping number A1,[7],0.08
same,2) Mouse performance B,[7],2.5
same,2) Mouse performance B1,[7],5
same,2) Mouse performance B2,[7],3
same,2) Mouse performance B3,[7],1
same,3) Timing-sequence response and specificity C,[7],1
same,3) Timing-sequence response and specificity C1,[7],100
same,3) Timing-sequence response and specificity C2,[7],1244
same,3) Timing-sequence response and specificity C3,[7],3
same,3) Timing-sequence response and specificity C4,[7],0.241
same,Total single peptide,[7],20.5
same,1) 95 percentile grouping number A,[8],5
same,1) 95 percentile grouping number A1,[8],0.08
same,2) Mouse performance B,[8],2.9
same,2) Mouse performance B1,[8],5
same,2) Mouse performance B2,[8],5
same,2) Mouse performance B3,[8],1
same,3) Timing-sequence response and specificity C,[8],1
same,3) Timing-sequence response and specificity C1,[8],260
same,3) Timing-sequence response and specificity C2,[8],1244
same,3) Timing-sequence response and specificity C3,[8],3
same,3) Timing-sequence response and specificity C4,[8],0.241
same,Total single peptide,[8],21.3
same,1) 95 percentile grouping number A,[9],4.5
same,1) 95 percentile grouping number A1,[9],0.065
same,2) Mouse performance B,[9],3.7
same,2) Mouse performance B1,[9],5
same,2) Mouse performance B2,[9],5
same,2) Mouse performance B3,[9],3
same,3) Timing-sequence response and specificity C,[9],0
same,3) Timing-sequence response and specificity C1,[9],153
same,3) Timing-sequence response and specificity C2,[9],1244
same,3) Timing-sequence response and specificity C3,[9],0
same,3) Timing-sequence response and specificity C4,[9],0.000
same,Total single peptide,[9],20.9
MADSNGTIT (SARS-CoV-2) [SEQ ID NO:16],A2: whether the 95 percentile of the last sampling is increased compared with the end point,"Embodiment II, Combination 2",Y
same,B1: D 0-D 14 95 percentile rise in the number of mice,"Embodiment II, Combination 2",5
same,B2: D 0-D 21 95 percentile rise in the number of mice,"Embodiment II, Combination 2",1
same,B3: D 14-D 21 95 percentile rise in the number of mice,"Embodiment II, Combination 2",0
same,B4: D 21-D 28 95 percentile rise in the number of mice,"Embodiment II, Combination 2",2
same,Total single peptide,"Embodiment II, Combination 2, A*3 + B*2 + C*1",19.9
same,A: 95 percentile grouping number score,"Embodiment II, Combination 2",5
same,B: Mouse performance score,"Embodiment II, Combination 2",2.2
same,A1: difference between a highest median and a D 0 median (95 percentile),"Embodiment II, mice immunized with Combination 2",0.2
same,B1: D 0-D 14 95 percentile rise in the number of mice,[1],3
same,B2: D 0-D 21 95 percentile rise in the number of mice,[1],3
same,B3: D 14-D 21 95 percentile rise in the number of mice,[1],1
same,B4: D 21-D 28 95 percentile rise in the number of mice,[1],2
same,A1: difference between a highest median and a D 0 median (95 percentile),[2],0.08
same,A2: whether the 95 percentile of the last sampling is increased compared with the end point,[2],Y
same,Total single peptide,[3],15.2
same,A: 95 percentile grouping number score,[1],3.5
same,B: Mouse performance score,[1],2.1
same,C1: #A timing-sequence response peptide fragment set,[1],511
same,C2: #B vaccine specificity peptide fragment set,[1],364
same,C3: Intersection of A and B,[1],1
same,C4: Percentage of the intersection in set B,[1],0.275
same,C: Timing-sequence response and specificity score,[1],0.5
NLDSKVGGNYNY [SEQ ID NO:15],B1: D 0-D 14 95 percentile rise in the number of mice,[1],3
same,B2: D 0-D 21 95 percentile rise in the number of mice,[1],3
same,B3: D 14-D 21 95 percentile rise in the number of mice,[1],1
same,B4: D 21-D 28 95 percentile rise in the number of mice,[1],0
same,A1: difference between a highest median and a D 0 median (95 percentile),[2],0.15
same,A2: whether the 95 percentile of the last sampling is increased compared with the end point,[2],N
same,Total single peptide,[3],17.4
same,A: 95 percentile grouping number score,[1],4.5
same,B: Mouse performance score,[1],1.7
same,C1: #A timing-sequence response peptide fragment set,[1],257
same,C2: #B vaccine specificity peptide fragment set,[1],682
same,C3: Intersection of A and B,[1],3
same,C4: Percentage of the intersection in set B,[1],0.440
same,C: Timing-sequence response and specificity score,[1],0.5
NSVAYSNNS (SARS-CoV-2) [SEQ ID NO:9],B1: D 0-D 14 95 percentile rise in the number of mice,[1],3
same,B2: D 0-D 21 95 percentile rise in the number of mice,[1],3
same,B3: D 14-D 21 95 percentile rise in the number of mice,[1],1
same,B4: D 21-D 28 95 percentile rise in the number of mice,[1],1
same,A1: difference between a highest median and a D 0 median (95 percentile),[2],0.07
same,A2: whether the 95 percentile of the last sampling is increased compared with the end point,[2],N
same,Total single peptide,[3],10.3
same,A: 95 percentile grouping number score,[1],2
same,B: Mouse performance score,[1],1.9
same,C1: #A timing-sequence response peptide fragment set,[1],145
same,C2: #B vaccine specificity peptide fragment set,[1],529
same,C3: Intersection of A and B,[1],1
same,C4: Percentage of the intersection in set B,[1],0.189
same,C: Timing-sequence response and specificity score,[1],0.5
NVAKSEFDRDAA [SEQ ID NO:26],B1: D 0-D 14 95 percentile rise in the number of mice,[1],3
same,B2: D 0-D 21 95 percentile rise in the number of mice,[1],3
same,B3: D 14-D 21 95 percentile rise in the number of mice,[1],1
same,B4: D 21-D 28 95 percentile rise in the number of mice,[1],0
same,A1: difference between a highest median and a D 0 median (95 percentile),[2],0.06
same,A2: whether the 95 percentile of the last sampling is increased compared with the end point,[2],N
same,Total single peptide,[3],6.9
same,A: 95 percentile grouping number score,[1],1
same,B: Mouse performance score,[1],1.7
same,C1: #A timing-sequence response peptide fragment set,[1],352
same,C2: #B vaccine specificity peptide fragment set,[1],541
same,C3: Intersection of A and B,[1],1
same,C4: Percentage of the intersection in set B,[1],0.185
same,C: Timing-sequence response and specificity score,[1],0.5
PLQPELDSFKEE [SEQ ID NO:37],B1: D 0-D 14 95 percentile rise in the number of mice,[1],3
same,B2: D 0-D 21 95 percentile rise in the number of mice,[1],2
same,B3: D 14-D 21 95 percentile rise in the number of mice,[1],1
same,B4: D 21-D 28 95 percentile rise in the number of mice,[1],1
same,A1: difference between a highest median and a D 0 median (95 percentile),[2],0.09
same,A2: whether the 95 percentile of the last sampling is increased compared with the end point,[2],Y
same,Total single peptide,[3],15.9
same,A: 95 percentile grouping number score,[1],4
same,B: Mouse performance score,[1],1.7
same,C1: #A timing-sequence response peptide fragment set,[1],230
same,C2: #B vaccine specificity peptide fragment set,[1],251
same,C3: Intersection of A and B,[1],1
same,C4: Percentage of the intersection in set B,[1],0.398
same,C: Timing-sequence response and specificity score,[1],0.5
QELGKYEQY (SARS-CoV-2) [SEQ ID NO:38],B1: D 0-D 14 95 percentile rise in the number of mice,[1],3
same,B2: D 0-D 21 95 percentile rise in the number of mice,[1],3
same,B3: D 14-D 21 95 percentile rise in the number of mice,[1],2
same,B4: D 21-D 28 95 percentile rise in the number of mice,[1],1
same,A1: difference between a highest median and a D 0 median (95 percentile),[2],0.10
same,A2: whether the 95 percentile of the last sampling is increased compared with the end point,[2],Y
same,Total single peptide,[3],18.2
same,A: 95 percentile grouping number score,[1],4.5
same,B: Mouse performance score,[1],2.1
same,C1: #A timing-sequence response peptide fragment set,[1],352
same,C2: #B vaccine specificity peptide fragment set,[1],541
same,C3: Intersection of A and B,[1],1
same,C4: Percentage of the intersection in set B,[1],0.185
same,C: Timing-sequence response and specificity score,[1],0.5
RGGSYTNDKAC (SARS-CoV-2) [SEQ ID NO:2],B1: D 0-D 14 95 percentile rise in the number of mice,[1],3
same,B2: D 0-D 21 95 percentile rise in the number of mice,[1],3
same,B3: D 14-D 21 95 percentile rise in the number of mice,[1],2
same,B4: D 21-D 28 95 percentile rise in the number of mice,[1],0
same,A1: difference between a highest median and a D 0 median (95 percentile),[2],0.14
same,A2: whether the 95 percentile of the last sampling is increased compared with the end point,[2],N
same,Total single peptide,[3],18.3
same,A: 95 percentile grouping number score,[1],4.5
same,B: Mouse performance score,[1],1.9
same,C1: #A timing-sequence response peptide fragment set,[1],288
same,C2: #B vaccine specificity peptide fragment set,[1],268
same,C3: Intersection of A and B,[1],4
same,C4: Percentage of the intersection in set B,[1],1.493
same,C: Timing-sequence response and specificity score,[1],1
RLFRKSNLK (SARS-CoV-2) [SEQ ID NO:35],B1: D 0-D 14 95 percentile rise in the number of mice,[1],3
same,B2: D 0-D 21 95 percentile rise in the number of mice,[1],3
same,B3: D 14-D 21 95 percentile rise in the number of mice,[1],2
same,B4: D 21-D 28 95 percentile rise in the number of mice,[1],0
same,A1: difference between a highest median and a D 0 median (95 percentile),[2],0.10
same,A2: whether the 95 percentile of the last sampling is increased compared with the end point,[2],N
same,Total single peptide,[3],16.3
same,A: 95 percentile grouping number score,[1],4
same,B: Mouse performance score,[1],1.9
same,C1: #A timing-sequence response peptide fragment set,[1],352
same,C2: #B vaccine specificity peptide fragment set,[1],541
same,C3: Intersection of A and B,[1],1
same,C4: Percentage of the intersection in set B,[1],0.185
same,C: Timing-sequence response and specificity score,[1],0.5
